How the values were obtained:
Format in all cases: physicochemical
[1] = Binding of minocycline HCl to Hydroxysomes and release (pH dependence); settings: for pH at which minocycline attaches (binds) to Hydroxysomes: binding suspension in water, shaken 30 min, monohydrochloride
Experimental: Hydroxysomes® (calcium phosphate particles, Laboratory Skin Care, San Carlos, Calif.) were suspended in water. […] The final pH of the suspension was adjusted to 6.2 to 8.0 with add. The binding suspension was mixed by shaking for 30 min. The binding suspensions were centrifuged at 10,000 rpm for 10 min in the bench top microcentrifuge. The supernatants were analyzed with the Shimadzu spectrophotometer to quantify the free minocycline. The bound minocycline was calculated by subtracting the amount of the minocycline detected in the supernatant, from the total initial amount in the binding suspension. The total initial minocycline absorbance at the binding pH was calculated from the linearity equation of the standard plot. • Controls: Minocycline solution at the same pH with the same concentration as in the binding mixture. D. Example Formulation

[2] = Minocycline stability in water, 6 days at room temperature, HPLC of supernatant; settings: capped glass vial
Source text: The vials were then centrifuged and the supernatant analyzed by HPLC.

[3] = Fluorescence of bulk powders under white and UV black light; settings: 25 mg MNC/g Hydroxysomes

CN(C)c1ccc(O)c2c1C[C@H]1C[C@H]3[C@H](N(C)C)C(O)=C(C(N)=O)C(=O)[C@@]3(O)C(O)=C1C2=O.Cl [Minocycline HCl, 4,7-Bis(dimethylamino) 1,4,4a,5,5a,6,11,12a-octahydro-3,10,12,12a-tetrahydroxy-1,11-dioxo-2-naphthacenecarboxamide monohydrochloride]
pH at which minocycline associated with Hydroxysomes is unstable (releases) [1]: acidic pH
pH at which minocycline attaches (binds) to Hydroxysomes ([1]; listed as Minocycline): 6.2-8.0
pH at which minocycline attaches (binds) to Hydroxysomes [1]: neutral or alkaline pH
degradation by HPLC analysis of supernatant [2]: substantial degradation
visible discoloration of vial [2]: visibly discolored
fluorescence of bulk powder under black light [3]: Intense yellow-orange fluorescence
